The values below come from patent US6350758B1, “Tropane derivatives and method for their synthesis” (Georgetown University, priority 1996, dated 2002).

The assay has as its target T1, dopamine transporter (Rattus norvegicus, UniProt P23977).
T1 construct: Synaptosomes were prepared by homogenizing fresh tissue in 20 volumes of ice-cold 0.32 M sucrose; from tissue; host or cells: striatal (caudate nucleus) synaptosomes from fresh brain tissue
The assay can be described thus: Test B: uptake of [3H]dopamine and [3H]serotonin into striatal synaptosomes. It counts as biochemical. To be noted: dopamine vs serotonin transporter.

T1 sequence (P23977 whole entry): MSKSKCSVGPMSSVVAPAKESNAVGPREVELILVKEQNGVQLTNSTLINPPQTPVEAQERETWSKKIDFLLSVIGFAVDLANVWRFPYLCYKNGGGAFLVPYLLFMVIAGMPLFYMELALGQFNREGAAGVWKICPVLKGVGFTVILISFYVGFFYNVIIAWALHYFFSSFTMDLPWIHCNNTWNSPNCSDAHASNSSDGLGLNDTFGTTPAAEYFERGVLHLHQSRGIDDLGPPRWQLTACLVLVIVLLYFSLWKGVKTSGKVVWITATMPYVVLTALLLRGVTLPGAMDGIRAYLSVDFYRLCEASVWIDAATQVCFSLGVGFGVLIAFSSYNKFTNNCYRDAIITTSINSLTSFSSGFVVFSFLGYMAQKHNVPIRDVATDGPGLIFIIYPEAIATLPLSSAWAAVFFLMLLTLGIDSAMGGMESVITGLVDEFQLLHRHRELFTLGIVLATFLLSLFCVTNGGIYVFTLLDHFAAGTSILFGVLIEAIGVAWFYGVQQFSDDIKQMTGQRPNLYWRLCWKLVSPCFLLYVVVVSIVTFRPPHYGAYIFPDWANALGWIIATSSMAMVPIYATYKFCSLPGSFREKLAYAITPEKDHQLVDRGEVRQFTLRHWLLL
Experimental: Uptake of [^3H]dopamine and [^3H]serotonin was carried out using synaptosomes from the same brain regions as described above for binding assays. A Krebs phosphate buffer, pH 7.4, containing 1 μM pargyline, dextrose (1.9 mg/ml), and ascorbic acid (0.2 mg/ml) was used. Synaptosomes were prepared by homogenizing fresh tissue in 20 volumes of ice-cold 0.32 M sucrose using a glass-teflon homogenizer. Nuclei and large tissue fragments were removed by centrifugation at 800×g for 10 minutes. The supernatant was centrifuged at 20,000×g for 15 minutes to collect synaptosomes in a pellet. The pellet was resuspended in 0.32 M sucrose at a concentration of 15, 100 or 10 mg/ml original wet weight, and diluted 10 fold in the assay tubes. The final assay volume was 1.0 ml and the duration of incubation at 30° C. was 3 minutes so that uptake was inear with time in contrast to binding assays where binding had reached equilibrium.
Ki values were determined using serial dilutions of the analogues. A thirty minute preincubation of the analogues with the tissue was utilized before uptake was initiated by adding tritiated substrate. The preincubation was utilized to allow analogue and transporters to reach an equilibrium so that kinetic effects were not a significant factor. Ki values were determined using standard techniques.

For the compound `Cc1ccc([C@@H]2C[C@@H]3CC[C@H]([C@H]2c2ccccc2)N3C)cc1` [compound 37, (1R, 5S)-2β-Phenyl-3α-(p-tolyl)tropane], the “selectivity for the dopamine transporter relative to the serotonin transporter” value was “highly selective”.

On to `CN1[C@H]2CC[C@@H]1[C@@H](c1ccccc1)[C@H](c1ccccc1)C2` [compound 49, (1R,5S)-2β-Phenyl-3α-phenyltropane], for which the “selectivity for the dopamine transporter relative to the serotonin transporter” value was “highly selective”.
